Measurements from patent publication US10118911B2, “P-toluenesulfonate for MEK kinase inhibitor, and crystal form thereof and preparation method therefor” (Jiangsu Hengrui Medicine Co., Ltd., priority 2015, dated 2018).
One block for each compound: values may come before it.

What was measured:
[1] = system: MEK kinase; settings: from PCT/CN2014/085976 of the applicant; cited from earlier work
[2] = Solubility compared to the free base; format: physicochemical
[3] = Bioavailability compared to the free base; format: in vivo
[4] = Special stability study of crystal form I (grinding, heating, pressing); format: physicochemical
Source text: Crystal form I of the compound of formula (I) prepared according to the method of Example 2 was ground, heated and pressed.

[5] = Stability of crystal form I spread flat in the air under lighting, heating and high humidity, purity detected by HPLC; format: physicochemical; settings: for stability (in words): lighting, high temperature, high humidity, p-toluenesulfonate
Protocol: The product sample of crystal form I prepared in Example 2 was spread flat in the air, to test its stability under conditions of lighting, heating (40° C., 60° C.), and high humidity (RH 75%, RH 90%). Samplings were carried out on Day 5 and Day 10.

[6] = after grinding treatment for 10 min in a mortar under nitrogen atmosphere
[7] = after heating treatment for 3 h at 80° C.
[8] = after pressing treatment (pressed to a slice)

Compound: Cc1ccc(Oc2cc(=O)n(C)c(Nc3ccc(I)cc3F)c2C(N)=O)cn1 [Example 1, 2-((2-fluoro-4-iodophenyl)amino)-1-methyl-4-((6-methylpyridin-3-yl)oxy)-6-oxo-1,6-dihydropyridine-3-carboxamide]
- inhibitory activity against MEK kinase [1]: strong inhibitory activity

- solubility [2]: greatly improved
- bioavailability [3]: greatly improved
Compound: Cc1ccc(Oc2cc(=O)n(C)c(Nc3ccc(I)cc3F)c2C(N)=O)cn1.Cc1ccc(S(=O)(=O)O)cc1 [compound of formula (I), 2-((2-fluoro-4-iodophenyl)amino)-1-methyl-4-((6-methylpyridin-3-yl)oxy)-6-oxo-1,6-di hydropyridine-3-carboxamide p-toluenesulfonate]

- Crystal form [4, 6]: form I
- DSC peak [4, 6]: 237.66 °C
- Crystal form [4, 7]: form I
- DSC peak [4, 7]: 237.45 °C
- Crystal form [4, 8]: form I
- DSC peak [4, 8]: 237.75 °C
- stability of the crystal form (in words) ([4]; grinding, pressure and heating): stable
- purity detected by HPLC ([5]; 40° C., day 0): 98.86%
- purity detected by HPLC ([5]; 40° C., day 5): 98.85%
- purity detected by HPLC ([5]; 40° C., day 10): 98.88%
- purity detected by HPLC ([5]; 60° C., day 0): 98.86%
- purity detected by HPLC ([5]; 60° C., day 5): 98.89%
- purity detected by HPLC ([5]; 60° C., day 10): 98.88%
- purity detected by HPLC ([5]; 4500 Lux, day 0): 98.86%
- purity detected by HPLC ([5]; 4500 Lux, day 5): 99.08%
- purity detected by HPLC ([5]; 4500 Lux, day 10): 99.17%
- purity detected by HPLC ([5]; RH75%, day 0): 98.86%
- purity detected by HPLC ([5]; RH75%, day 5): 98.88%
- purity detected by HPLC ([5]; RH75%, day 10): 98.88%
- purity detected by HPLC ([5]; RH90%, day 0): 98.86%
- purity detected by HPLC ([5]; RH90%, day 5): 98.86%
- purity detected by HPLC ([5]; RH90%, day 10): 98.88%
- stability (in words) ([5]; listed as crystal form I): good stability
- stability (in words) [5]: stable
Compound: Cc1ccc(Oc2cc(=O)n(C)c(Nc3ccc(I)cc3F)c2C(N)=O)cn1.Cc1ccc(S(=O)(=O)O)cc1 [2-((2-fluoro-4-iodophenyl)amino)-1-methyl-4-((6-methylpyridin-3-yl)oxy)-6-oxo-1,6-di hydropyridine-3-carboxamide p-toluenesulfonate]
